Test results as given in patent publication EP4177246A1, “FUSED OXAZEPINES AS INHIBITORS OF PEROXIREDOXINS” (Centro Atlántico del Medicamento, SA, priority 2021, dated 2023).

Experiments:
K562 = assay: MTT cell viability assay, K562 cells; assay type: cell-based; details: Homo sapiens, 48 h drug exposure
Experimental: K562 [American Type Culture Collection (ATCC) reference number CCL-243]. This a human cancer cell line derived from the bone marrow of a person with CML.
(§1) Cell viability was assayed by measuring the mitochondrial reduction of the tetrazolium salt 3-(4,5-methyltiazol-2yl)-2,5diphenyl-tetrazolium bromide] (MTT) (Applichen; A2231,0010) [Mosmann T. J Immunol Methods. 1983 16;65(1-2):55-63 (ref. 36); Chuan Y-C et al 2010. Oncogene. 29 (10), 1531-1542 (ref. 37)]. Cells were seeded in 96-well plates in medium (either RPMI, DMEM or McCoys depending on the recommendations from the ATCC) supplemented with 10% FBS (Lonza Cat. N°: 14-502F), 2mM L-Glut (Lonza Cat. N°: BE17-605E) and 100U/ml PEST (Lonza Cat. N°: DE17-605E) at a cell density of 1000-5000 cells/well (96 well plate). Cells were seeded at a density according to their exponential growth phase (normally 1000 to 5000/well). The cells were cultured at 37 °C in the dark in air containing 5% CO2. After 24h either vehicle (0.05% DMSO) or drug were added to culture medium at the indicated concentrations (10 to 0,01microM). After another 48 h, MTT (0.3 mg/ml) was added to cells, followed by incubation for 2-4h at 37 °C in the dark. The medium was then removed and the precipitated formazan was solubilized by the addition of DMSO (200 µL).
(§2) The optical density was measured at 595 nm with the iMark Microplate Reader (BioRad, USA). Data was expressed as percent growth above the level in controls and the results in figures were plotted as means ± SEM of each test point from 3 replicates.
(§3) Statistical analysis. The concentration of drug that provokes 50% reduction of cell viability (IC50) was determined by using non-linear regression analysis and data were fitted to a log concentration vs normalized response curve in GraphPad software v5 (San Diego, CA).

MDA-MB-231 = assay: MTT cell viability assay, MDA-MB-231 cells; assay type: cell-based, human; details: 48 h drug exposure
Experimental: MDA-MB-231 [American Type Culture Collection (ATCC) reference number HTB-26]. This a human breast cancer cell line derived from a metastatic site from a person.
as §1, §2, §3

HEL 92.1.7 = assay: MTT cell viability assay, HEL cells; assay type: cell-based; details: Homo sapiens, 48 h drug exposure
Experimental: HEL 92.1.7 [American Type Culture Collection (ATCC) reference number TIB-180]. This a human cancer cell line derived from the bone marrow of a person with erythroleukemia, which is a form of AML.
as §1, §2, §3

SMILES | IC50 (MDA-MB-231; Homo sapiens) [µM] | IC50 (HEL 92.1.7) [µM] | other results
O=C1C2=C(C(=O)c3ccccc31)N(c1ccc(Cl)cc1)Cc1ccccc1O2 [Compound 3] | – | – | IC50 (K562): 0.9 µM
O=C1C2=C(C(=O)c3ccccc31)N(c1ccccn1)Cc1ccccc1O2 [Compound 5, 12-(pyridin-2-yl)-12,13-dihydrobenzo[f]naphtho[2,3-b][1,4]oxazepine-6,11-dione] | – | – | IC50 (K562): 0.43 µM
COc1cccc2c1OC1=C(C(=O)c3ccccc3C1=O)N(c1ccc(C(N)=O)cc1)C2 [Compound 7] | – | – | IC50 (K562): 0.89 µM
COc1ccc2c(c1)OC1=C(C(=O)c3ccccc3C1=O)N(c1ccc(C#N)cc1)C2 [Compound 14] | – | – | IC50 (K562): 0.97 µM
O=C(O)c1ccc(N2Cc3ccccc3OC3=C2C(=O)c2ccccc2C3=O)cc1 [Compound 18] | – | – | IC50 (K562): > 10 µM
NS(=O)(=O)c1ccc(N2Cc3cc(Cl)ccc3OC3=C2C(=O)c2ccccc2C3=O)cc1 [Compound 20] | – | – | IC50 (K562): 1.42 µM
NC(=O)c1ccc(N2Cc3cc(Cl)ccc3OC3=C2C(=O)c2ccccc2C3=O)cc1 [Compound 21] | – | – | IC50 (K562): 1.12 µM
O=C1C2=C(Oc3ccccc3CN2c2cccnc2)C(=O)c2c1cccc2[N+](=O)[O-] [Compound 27] | 1.73 | – | –
O=C1C2=C(C(=O)c3c1cccc3[N+](=O)[O-])N(c1cccnc1)Cc1ccccc1O2 [Compound 28] | 2 | – | –
NS(=O)(=O)c1ccc(N2Cc3ccccc3OC3=C2C(=O)c2ccc(S(=O)(=O)N4CCOCC4)cc2C3=O)cc1 [Compound 29] | > 10 | – | –
COc1ccc(OC)c2c1C(=O)C1=C(C2=O)N(c2ccc(C#N)cc2)Cc2ccccc2O1 [Compound 30] | 0.89 | – | –
COc1cc(F)c(OC)c2c1C(=O)C1=C(Oc3ccccc3CN1c1ccc(C#N)cc1)C2=O [Compound 31] | 1.51 | – | –
CN1CCN(c2cc(O)c3c(c2O)C(=O)C2=C(C3=O)N(c3ccc(C#N)cc3)Cc3ccccc3O2)CC1 [Compound 32] | 0.79 | – | –
CN1CCN(c2cc(O)c3c(c2O)C(=O)C2=C(C3=O)N(c3cccnc3)Cc3ccccc3O2)CC1 [Compound 33] | 0.72 | – | –
O=C(O)c1ccc2c(c1)CN(c1ccccc1)C1=C(O2)C(=O)c2c(O)ccc(O)c2C1=O [Compound 50] | – | 2.42 | –
CCOC(=O)c1ccc2c(c1)CN(c1ccccc1)C1=C(O2)C(=O)c2c(O)ccc(O)c2C1=O [Compound 64] | – | 5.89 | IC50 (K562): 1.3 µM
CC(=O)Oc1ccc(O)c2c1C(=O)C1=C(C2=O)N(c2ccccc2)Cc2ccccc2O1 [Compound 88] | – | 0.08 | –
CC(=O)Oc1ccc(O)c2c1C(=O)C1=C(Oc3ccccc3CN1c1cccnc1)C2=O [Compound 90] | – | 0.09 | –
CC(=O)Oc1ccc(OC(C)=O)c2c1C(=O)C1=C(Oc3ccccc3C(c3ccc(N(C)C)nc3)N1)C2=O (centres unmarked) [Compound 95, 12-(6-(dimethylamino)pyridin-3-yl)-6,11-dioxo-6,11,12,13-tetrahydrobenzo[f]naphtha [2,3-b][1,4]oxazepine-7,10-diyl diacetate] | – | – | IC50 (MDA-MB-231): 0.15 µM
CC(=O)Oc1ccc(OC(C)=O)c2c1C(=O)C1=C(Oc3ccccc3C(c3ccc(N4CCOCC4)nc3)N1)C2=O (centres unmarked) [Compound 96, 12-(6-morpholinopyridin-3-yl)-6,11-dioxo-6,11,12,13-tetrahydrobenzo[f]naphtha [2,3-b][1,4] oxazepine-7,10-diyl diacetate] | – | – | IC50 (MDA-MB-231): 0.13 µM

Second part, led by results:

IC50 (MDA-MB-231; Homo sapiens) [µM] | SMILES | IC50 (HEL 92.1.7) [µM] | other results
0.74 | N#Cc1ccc(N2Cc3ccccc3OC3=C2C(=O)c2c(O)cc(F)c(O)c2C3=O)cc1 [Compound 34] | – | –
0.8 | COc1cc(F)c(OC)c2c1C(=O)C1=C(Oc3ccccc3CN1c1cccnc1)C2=O [Compound 35] | – | –
0.25 | COc1ccc(N2Cc3ccccc3OC3=C2C(=O)c2c(O)ccc(O)c2C3=O)cc1 [Compound 46] | 0.11 | –
0.33 | O=C1C2=C(C(=O)c3c(O)ccc(O)c31)N(c1ccc(Cl)nc1)Cc1ccccc1O2 [Compound 47, 12-(6-chloropyridin-3-yl)-7,10-dihydroxy-12,13-dihydrobenzo[f]naphtho[2,3-b][1,4]-oxazepine-6,11-dione] | – | –
0.27 | COC(=O)c1ccc(N2Cc3ccccc3OC3=C2C(=O)c2c(O)ccc(O)c2C3=O)cc1 [Compound 48] | 0.1 | –
0.6 | CCOC(=O)c1ccc2c(c1)CN(c1cccnc1)C1=C(O2)C(=O)c2c(O)ccc(O)c2C1=O [Compound 51] | 3.31 | –
> 10 | O=C(O)c1ccc2c(c1)CN(c1cccnc1)C1=C(O2)C(=O)c2c(O)ccc(O)c2C1=O [Compound 52] | > 10 | –
0.64 | CC(=O)Oc1ccc(OC(C)=O)c2c1C(=O)C1=C(C2=O)N(c2ccc(C(=O)O)cc2)Cc2ccccc2O1 [Compound 53] | 0.12 | –
1.17 | O=C(O)c1ccc(N2Cc3ccccc3OC3=C2C(=O)c2c(O)ccc(O)c2C3=O)cc1 [Compound 57] | 0.13 | –
0.5 | O=C1C2=C(C(=O)c3c(O)ccc(O)c31)N(c1ccc(C(=O)N3CCOCC3)cc1)Cc1ccccc1O2 [Compound 58, 7,10-dihydroxy-12-(4-(morpholine-4-carbonyl)phenyl)-12,13-dihydrobenzo[f]naphtho[2,3-b][1,4]oxazepine-6,11-dione] | – | –
0.41 | CC(=O)Oc1ccc(OC(C)=O)c2c1C(=O)C1=C(C2=O)N(c2cccnc2)Cc2ccccc2O1 [Compound 60, 6,11-dioxo-12-(pyridin-3-yl)-6,11,12,13-tetrahydrobenzo[f]naphtho[2,3-b][1,4] oxazepine-7,10-diyl diacetate] | 0.08 | –
0.25 | NCCN(CCO)c1ccc(N2Cc3ccccc3OC3=C2C(=O)c2c(O)ccc(O)c2C3=O)cn1 [Compound 63] | 0.09 | –
0.28 | CC(=O)Oc1ccc(OC(C)=O)c2c1C(=O)C1=C(C2=O)N(c2ccc(C#N)cc2)Cc2ccccc2O1 [Compound 67, 12-(4-cyanophenyl)-6,11-dioxo-6,11,12,13-tetrahydrobenzo[f]naphtho[2,3-b][1,4] oxazepine-7,10-diyl diacetate] | 0.23 | –
7.1 | N#Cc1ccc(N2Cc3ccccc3OC3=C2C(=O)c2ccc(S(=O)(=O)N4CCOCC4)cc2C3=O)cc1 [Compound 70] | – | –
3.2 | O=C1C2=C(C(=O)c3ccc(S(=O)(=O)N4CCOCC4)cc31)N(c1cccnc1)Cc1ccccc1O2 [Compound 71] | – | –
0.72 | CN(C)CCOc1ccc(N2Cc3ccccc3OC3=C2C(=O)c2ccccc2C3=O)cn1 [Compound 72] | – | –
1.8 | N#Cc1ccc(N2Cc3ccccc3OC3=C2C(=O)c2ccc(Br)c(O)c2C3=O)cc1 [Compound 74, 4-(8-bromo-7-hydroxy-6,11-dioxo-6,11-dihydrobenzo[f]naphtho[2,3-b][1,4]oxazepin-12(13H)-yl)benzonitrile] | – | –
6.9 | CS(=O)(=O)Nc1cccc2c1C(=O)C1=C(C2=O)N(c2ccc(C#N)cc2)Cc2ccccc2O1 [Compound 78, N-(12-(4-cyanophenyl)-6,11-dioxo-6,11,12,13-tetrahydrobenzo[f]naphtha [2,3-b][1,4]oxazepin-7-yl)methanesulfonamide] | – | –
6.8 | NS(=O)(=O)c1ccc(N2Cc3ccccc3OC3=C2C(=O)c2cccc([N+](=O)[O-])c2C3=O)cc1 [Compound 79] | – | –
6.6 | NS(=O)(=O)c1ccc(N2Cc3ccccc3OC3=C2C(=O)c2c(cccc2[N+](=O)[O-])C3=O)cc1 [Compound 80] | – | –
0.8 | CC(=O)Oc1ccc(OC(C)=O)c2c1C(=O)C1=C(C2=O)N(c2cccc(C#N)c2)Cc2ccccc2O1 [Compound 82, 12-(3-cyanophenyl)-6,11-dioxo-6,11,12,13-tetrahydrobenzo[f]naphtho[2,3-b][1,4] oxazepine-7,10-diyl diacetate] | 0.18 | –
0.15 | CC(=O)Oc1ccc(OC(C)=O)c2c1C(=O)C1=C(C2=O)N(c2ccccc2)Cc2ccccc2O1 [Compound 87, 6,11-dioxo-12-phenyl-6,11,12,13-tetrahydrobenzo[f]naphtho[2,3-b][1,4]oxazepine-7,10-diyl diacetate] | 0.08 | –
0.15 | CC(=O)Oc1ccc(OC(C)=O)c2c1C(=O)C1=C(C2=O)N(c2cccc(C(N)=O)c2)Cc2ccccc2O1 [Compound 92, 12-(3-carbamoylphenyl)-6,11-dioxo-6,11,12,13-tetrahydrobenzo[f]naphtho[2,3-b][1,4] oxazepine-7,10-diyl diacetate] | 0.12 | –
1 | COc1ccc(OC)c2c1C(=O)C1=C(C2=O)N(c2cccc(C#N)c2)Cc2ccccc2O1 [Compound 94] | – | –
5.9 | N#Cc1ccc(N2Cc3ccccc3OC3=C2C(=O)c2cccc([N+](=O)[O-])c2C3=O)cc1 [Compound 107] | – | –
2.95 | N#Cc1ccc(N2Cc3ccccc3OC3=C2C(=O)c2c(cccc2[N+](=O)[O-])C3=O)cc1 [Compound 108] | – | –
